≈ marks a conversion by molar mass, not a printed value. Calls of active or inactive are those of the source. No cut-off for these calls is given here.
What was measured:
LNCaP = assay: Cytotoxicity against human LNCAP cells; format: functional; details: read-out: ED50 (the source's name)
Lu1 = assay: Cytotoxicity against human Lu1 cells; format: functional; details: read-out: ED50 (the source's name)
ZR-75-1 = assay: Cytotoxicity against human ZR-75-1 cells; format: functional, cell-based
[1] = Cytotoxicity against human KBVIN cells in presence of vinblastine; format: functional; details: read-out: ED50 (the source's name)
[2] = Antimitotic activity in rat ASK cells assessed as astrocyte generation at […] by light microscopy; format: functional; details: read-out: ED50 (the source's name)
KB = assay: Cytotoxicity against human KB cells; format: functional; details: read-out: ED50 (the source's name)
[3] = Cytotoxicity against human KBVIN cells in absence of vinblastine; format: functional; details: read-out: ED50 (the source's name)

Row | SMILES | EC50 (LNCaP) | EC50 (Lu1) | Activity (ZR-75-1) | EC50 [1] | EC50 [2] | EC50 (KB) | EC50 [3]
1 | CN1CC[C@@]2(C)C3=CC(=O)C(=O)C=C3N(C)[C@@H]12 [RUBRESERINE] | 13.1 µg/mL (≈ 56.4 µM) | > 20 µg/mL | Active | > 20 µg/mL | > 20 µg/mL | > 20 µg/mL | 16.8 µg/mL (≈ 72.3 µM)
2 | CCNC1=CC2=N[C@H]3N(C)CC[C@@]3(C)C2=CC1=O | 0.3 µg/mL (≈ 1.22 µM) | 1.5 µg/mL (≈ 6.11 µM) | inactive | 0.6 µg/mL | 1.9 µg/mL (≈ 7.74 µM) | 0.2 µg/mL (≈ 0.815 µM) | 0.8 µg/mL (≈ 3.26 µM)
